Where two headings read alike, the source gives them in different places. Blank lines part the entries; values can stand above or below the compound they belong to.
Assays:
Candida bombicola = type: cell-based; details: for number of colony forming units: ester 30 g/l in total
Description: A one litre baffled shake flask was filled with 200 ml medium according to Lang and co-workers (2000) and inoculated with Candida bombicola and left to grow at 30°C and 200 rpm. After 48 h 10 g/l Dodecyl glutarate was added. On day 5, 6 and 7 another 7.5 , 5 and 7.5 g/l ester was added. On day 10 the fermentation was stopped. The number of colony forming units was somewhat lower compared to fermentations on rapeseed oil or glucose. […] The sophorolipid yield as gravimetrically determined amounted 26 g/l. The residual ester concentration was 13 g/l. Dodecyl glutarate is a solid which was difficult to dose and tended to agglomerate, thus limiting the availability to Candida and probably causing part of the residual substrate. […] These peaks were identified by RP-HPLC-MS (Waters ZQ) using quadrupole electrospray negative ion detection (see figure 1). […] Both the lactonic and the acid diacetylated form were identified as well as traces of monoacetylated species. [formula]
To verify whether the ester or the glutaric acid which may be released following hydrolysis during the fermentation were toxic, 200 ml cultures were set up in one litre shaking flasks at 200 rpm. After 48 hours glutaric acid was added; 0, 10 or 100 %, the latter corresponding to the maximum amount of glutaric acid after hydrolysis of 30 g/l dodecyl glutarate (which equals the total amount of substrate added for synthesis). Eight days after the initial addition of glutaric acid the fermentation was stopped. […] It is therefore concluded that the toxicity of dodecyl glutarate is due to the product itself, rather than to hydrolysis products.
Taking into account the above results, a new experiment was set up in a Biostat B5 containing 3 litre medium to which 4g/l rapeseed oil was added in order to avoid toxic effects during the growth phase. From 48 hours onwards small portions of dodecyl glutarate, ester T0 in table 3 were added daily, totalling 145.5 gram during 7 days. Dodecyl glutarate has the same apparent chain length as stearic acid. After the last addition on day 8, the fermentation was run for another 48 hour and terminated 240 hours after the start. The fermentor was operated at 800 rpm mixing speed, 30°C and 1 vvm aeration, always assuring far higher oxygen concentrations than the 15% or less described in US6433152. After 140 hours the initial glucose was almost completely consumed and an additional 43 g/l was added. The pH was kept at 3.5 with 5 M NaOH and the oxygen saturation was varied between 70 and 85% during the production phase, rising 10 to 20 hours after each addition, which indicated the substrate was more or less consumed. The number of CFU in the production phase remained at approximately 6.10^9/ml, the dry cell weight at about 15 g/l, both values being considerably lower than typical values for rapeseed oil fermentations with resp. […] After about 200 hours more and more yeast cells changed aspect from the normal round shape to a flattened shape. This forms an indication of the stress the cells were experiencing due to the product formed and or the decreasing glucose concentration. […]
A new T2 batch was produced with increased care to completely remove the solvent. This batch was not toxic, with the number of CFU remaining stable (above 10^9/ml) over time, independent of the substrate concentration.
Shakeflask experiments with decyl heptanoate (ester T10 in table 2) gave similar results, indicating high toxicity for the first ester batch. […] The mass spectrometric analysis after alkaline hydrolysis of sophorolipids obtained from T10 ester, other than the obvious de novo sophorolipids and hydroxy dodecanoic acid is summarized in table 6 below. […] Note that again methyl terminated sophorolipids as well as sophorolipids with surplus glucose units were identified as de novo synthesized products. For both esters the dissolved oxygen concentration never came below 40% and averaged 65% (T2) and 63% (T10). […]

[1] = to clarify 100 ml AD solution of 2.5 wt. % laureth sulphate and 10% NaOH
Description: In this example the amount of hydrotrope needed to clarify a 100 ml AD solution of 2.5 wt. % laureth sulphate and 10% NaOH.

M. furfur = assay: Minimal inhibitory concentration, agar dilution with olive oil overlay; type: cell-based; details: 48 hours at 37°C, Sabouraud's dextrose agar with olive oil
Description: The yeast M. furfur is one of the natural causes of dandruff formation. Since it is a lipophilic yeast, the in vitro growth must be stimulated by natural oils or other fatty substances when determining minimal inhibitory concentrations (MIC). We used the most common method, which is to overlay Sabouraud's dextrose agar containing cycloheximide (actidione) with olive oil.
A dilution series (1, ½ ¼, 1/8, 1/16..) was prepared. One ml of this dilution was added to 3 petri dishes per concentration and mixed with the warm agar. After cooling a drop of the yeast culture suspension was dropped on the petri dish and left to grow for 48 hours at 37°C.
The MIC was determined for azelaic acid (pa VWR) neutralized with NaOH, azelaic mixture with SL9:0 (from ex.O.1) and calcium purified azelaic mixture with SL9:0. Whereas a 30% azelaic solution was needed for complete inhibition was needed, only 20% of the (SL9-azelaic) mixture of ex.O.1 was needed.

[2] = shake flask, new/improved ester batch, solvent removed
[3] = shake flask, 10 or 100 % of the amount released from 30 g/l dodecyl glutarate, 8 days

SMILES: CCCCCCCCCCCCOC(=O)CCCC(=O)O [dodecyl glutarate, Dodecyl glutarate]
- toxicity (Candida bombicola; Biostat B5 fermentor): moderate toxicity
- number of CFU in the production phase (Candida bombicola; Biostat B5 fermentor, 145.5 gram ester during 7 days): approximately 6.10^9 /ml
- dry cell weight (Candida bombicola; Biostat B5 fermentor, production phase): about 15 g/l
- toxicity effect of the ester (Candida bombicola; shake flask fermentation): moderate toxicity effect
- number of colony forming units (Candida bombicola; shake flask, at the end of the experiment (day 10)): ~1.10^9 /ml
- number of colony forming units (Candida bombicola; shake flask, value before the drop (printed 'approx. 4', x 10^9 implied)): approx. 4 /ml

SMILES: O=C(O)CCCC(=O)O [glutaric acid, reference compound]
- growth in terms of colony forming units (Candida bombicola; [3]): did not inhibit growth
- sophorolipid production by Candida bombicola (Candida bombicola; [3]): nor did it lower the sophorolipid production

SMILES: CCO [Ethanol]
- % active matter needed [1]: 26%

Further lines, with some results ahead:

- number of CFU (Candida bombicola; shake flask, new batch, stable over time, independent of substrate concentration): above 10^9 /ml
SMILES: CCCCCCCCCCCCOC(=O)CCCC [dodecyl pentanoate]
- substrate concentration from which toxicity was shown (Candida bombicola; shake flask, first ester batch): ≥ 10 mM
- substrate toxicity (Candida bombicola; shake flask, first ester batch): pronounced substrate toxicity
- substrate toxicity (Candida bombicola; [2]): not toxic

- number of CFU (Candida bombicola; shake flask, improved batch, after reduction): 3 x 10^9 CFU/ml
- number of CFU (Candida bombicola; shake flask, improved batch, before reduction): 6,5 x 10^9 CFU/ml
SMILES: CCCCCCCCCCOC(=O)CCCCCC [decyl heptanoate]
- substrate toxicity (Candida bombicola; shake flask, first ester batch): high toxicity
- substrate toxicity (Candida bombicola; [2]): slightly toxic

- MIC (lowest concentration which completely inhibits growth) (M. furfur): 30%
SMILES: O=C(O)CCCCCCCC(=O)O [azelaic acid]
